Measured values from US12227500B2, “Substituted pyrrolo[2,3-b]pyridines for suppressing toxic endoplasmic reticulum stress” (THE TRUSTEES OF COLUMBIA UNIVERSITY IN THE CITY OF NEW YORK, priority 2018, dated 2025).

Columns and labels:
Assay in all cases: Radiolabeled ATP kinase assay, panel of 60 kinases (Table S5)
Assay type in all cases: biochemical
[1] = biological target: T1, panel of 60 human kinases (Homo sapiens, UniProt O94806); settings: PKCnu/PRKD3; 0.1 μM; 10 μM ATP; read-out: % Enzyme Activity (relative to DSMO controls)
T1 construct: purchased Reaction Biology Corp
T1 sequence (O94806 1-890): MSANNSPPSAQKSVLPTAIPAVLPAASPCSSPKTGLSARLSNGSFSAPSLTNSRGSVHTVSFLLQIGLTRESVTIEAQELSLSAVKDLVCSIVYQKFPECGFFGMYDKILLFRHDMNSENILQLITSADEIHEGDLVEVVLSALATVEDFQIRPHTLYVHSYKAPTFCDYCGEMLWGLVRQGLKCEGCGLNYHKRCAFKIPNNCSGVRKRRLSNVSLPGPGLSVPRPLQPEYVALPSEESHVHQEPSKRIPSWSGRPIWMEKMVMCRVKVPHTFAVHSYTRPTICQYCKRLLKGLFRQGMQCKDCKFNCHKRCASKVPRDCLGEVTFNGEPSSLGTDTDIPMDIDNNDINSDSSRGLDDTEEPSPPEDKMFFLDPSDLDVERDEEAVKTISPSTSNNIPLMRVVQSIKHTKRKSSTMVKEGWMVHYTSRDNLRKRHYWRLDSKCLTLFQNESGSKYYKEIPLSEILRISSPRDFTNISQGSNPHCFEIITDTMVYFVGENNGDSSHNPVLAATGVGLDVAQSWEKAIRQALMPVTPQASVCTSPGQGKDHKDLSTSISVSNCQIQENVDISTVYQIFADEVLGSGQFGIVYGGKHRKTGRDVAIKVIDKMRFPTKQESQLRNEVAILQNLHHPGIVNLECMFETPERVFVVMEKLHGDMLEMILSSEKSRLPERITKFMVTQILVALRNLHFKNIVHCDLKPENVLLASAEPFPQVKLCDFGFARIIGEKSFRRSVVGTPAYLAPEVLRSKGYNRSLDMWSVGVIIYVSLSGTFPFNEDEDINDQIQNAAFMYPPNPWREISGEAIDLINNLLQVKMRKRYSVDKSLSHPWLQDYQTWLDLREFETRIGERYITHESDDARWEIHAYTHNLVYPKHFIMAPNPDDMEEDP
In short: (§1)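 Compounds at two concentrations, 0.1 μM and 0.5 μM, were screened for inhibition of 60 kinases in cell-free assays read out by radiolabeled ATP.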

[2] = biological target: T2, panel of 60 human kinases (Homo sapiens, UniProt O75460); settings: ERN1/IRE1; 0.1 μM; 10 μM ATP; read-out: % Enzyme Activity (relative to DSMO controls)
T2 construct: purchased Reaction Biology Corp
In short: as §1

[3] = biological target: T3, panel of 60 human kinases (Homo sapiens, UniProt P53779); settings: JNK3; 0.1 μM; 10 μM ATP; read-out: % Enzyme Activity (relative to DSMO controls)
T3 construct: purchased Reaction Biology Corp
In short: as §1

[4] = biological target: T4, panel of 60 human kinases (Homo sapiens, UniProt Q16539); settings: P38a/MAPK14; 0.1 μM; 10 μM ATP; read-out: % Enzyme Activity (relative to DSMO controls)
T4 construct: purchased Reaction Biology Corp
In short: as §1

[5] = biological target: T5, panel of 60 human kinases (Homo sapiens, UniProt P49759); settings: CLK1; 0.1 μM; 10 μM ATP; read-out: % Enzyme Activity (relative to DSMO controls)
T5 construct: purchased Reaction Biology Corp
In short: as §1

[6] = biological target: T6, panel of 60 human kinases (Homo sapiens, UniProt P45983); settings: JNK1; 0.1 μM; 10 μM ATP; read-out: % Enzyme Activity (relative to DSMO controls)
T6 construct: purchased Reaction Biology Corp
In short: as §1

[7] = biological target: T7, panel of 60 human kinases (Homo sapiens, UniProt P49760); settings: CLK2; 0.1 μM; 10 μM ATP; read-out: % Enzyme Activity (relative to DSMO controls)
T7 construct: purchased Reaction Biology Corp
In short: as §1

[8] = biological target: T8, panel of 60 human kinases (Homo sapiens, UniProt Q12851); settings: GCK/MAP4K1; 0.1 μM; 10 μM ATP; read-out: % Enzyme Activity (relative to DSMO controls)
T8 construct: purchased Reaction Biology Corp
T8 sequence (Q12851 1-820): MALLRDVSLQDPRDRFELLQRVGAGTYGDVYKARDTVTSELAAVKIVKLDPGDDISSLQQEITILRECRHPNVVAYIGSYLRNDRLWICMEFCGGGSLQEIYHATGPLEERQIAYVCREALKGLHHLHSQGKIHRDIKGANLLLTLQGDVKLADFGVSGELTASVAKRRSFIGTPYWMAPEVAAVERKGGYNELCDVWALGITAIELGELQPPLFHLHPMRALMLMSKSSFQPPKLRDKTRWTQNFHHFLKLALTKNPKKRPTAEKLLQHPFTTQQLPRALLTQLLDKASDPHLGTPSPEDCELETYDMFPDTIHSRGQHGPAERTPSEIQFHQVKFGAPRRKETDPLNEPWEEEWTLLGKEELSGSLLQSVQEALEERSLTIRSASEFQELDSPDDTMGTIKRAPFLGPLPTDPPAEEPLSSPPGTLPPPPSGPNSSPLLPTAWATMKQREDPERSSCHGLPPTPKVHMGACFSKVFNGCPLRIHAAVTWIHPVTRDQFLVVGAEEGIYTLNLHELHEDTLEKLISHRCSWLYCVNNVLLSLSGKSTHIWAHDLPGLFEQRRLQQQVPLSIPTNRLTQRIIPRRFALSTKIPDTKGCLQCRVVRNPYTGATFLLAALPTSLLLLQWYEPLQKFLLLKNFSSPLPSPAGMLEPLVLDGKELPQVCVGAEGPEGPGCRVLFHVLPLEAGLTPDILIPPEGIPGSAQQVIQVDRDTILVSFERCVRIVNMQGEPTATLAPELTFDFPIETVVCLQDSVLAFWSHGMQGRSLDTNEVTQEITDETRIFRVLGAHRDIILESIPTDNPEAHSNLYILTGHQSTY
In short: as §1

T2 sequence (O75460 19-977): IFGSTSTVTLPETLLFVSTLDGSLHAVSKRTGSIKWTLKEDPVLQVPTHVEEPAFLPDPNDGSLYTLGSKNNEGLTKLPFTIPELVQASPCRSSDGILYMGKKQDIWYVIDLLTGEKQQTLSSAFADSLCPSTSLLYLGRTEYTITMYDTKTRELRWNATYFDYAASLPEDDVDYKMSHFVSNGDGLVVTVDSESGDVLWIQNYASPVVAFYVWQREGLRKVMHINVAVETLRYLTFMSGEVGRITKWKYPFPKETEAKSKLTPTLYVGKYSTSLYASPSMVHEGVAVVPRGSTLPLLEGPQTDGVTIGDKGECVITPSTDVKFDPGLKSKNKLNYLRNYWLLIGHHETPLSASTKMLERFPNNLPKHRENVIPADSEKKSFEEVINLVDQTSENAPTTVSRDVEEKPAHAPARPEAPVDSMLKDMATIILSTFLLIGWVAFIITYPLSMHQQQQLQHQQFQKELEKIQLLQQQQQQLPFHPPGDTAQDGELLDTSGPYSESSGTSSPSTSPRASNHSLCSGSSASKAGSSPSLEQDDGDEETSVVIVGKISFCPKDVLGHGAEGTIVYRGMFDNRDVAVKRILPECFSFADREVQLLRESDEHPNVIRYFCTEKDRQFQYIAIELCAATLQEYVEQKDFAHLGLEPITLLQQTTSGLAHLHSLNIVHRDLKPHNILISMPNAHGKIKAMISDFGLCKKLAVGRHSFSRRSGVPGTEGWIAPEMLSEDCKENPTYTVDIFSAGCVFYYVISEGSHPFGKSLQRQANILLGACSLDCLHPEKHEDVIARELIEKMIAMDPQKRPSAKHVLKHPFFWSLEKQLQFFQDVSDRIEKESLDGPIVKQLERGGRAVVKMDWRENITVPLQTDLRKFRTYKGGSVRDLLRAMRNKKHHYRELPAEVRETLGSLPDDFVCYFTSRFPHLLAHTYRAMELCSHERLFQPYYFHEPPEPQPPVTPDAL
T6 sequence (P45983 whole entry): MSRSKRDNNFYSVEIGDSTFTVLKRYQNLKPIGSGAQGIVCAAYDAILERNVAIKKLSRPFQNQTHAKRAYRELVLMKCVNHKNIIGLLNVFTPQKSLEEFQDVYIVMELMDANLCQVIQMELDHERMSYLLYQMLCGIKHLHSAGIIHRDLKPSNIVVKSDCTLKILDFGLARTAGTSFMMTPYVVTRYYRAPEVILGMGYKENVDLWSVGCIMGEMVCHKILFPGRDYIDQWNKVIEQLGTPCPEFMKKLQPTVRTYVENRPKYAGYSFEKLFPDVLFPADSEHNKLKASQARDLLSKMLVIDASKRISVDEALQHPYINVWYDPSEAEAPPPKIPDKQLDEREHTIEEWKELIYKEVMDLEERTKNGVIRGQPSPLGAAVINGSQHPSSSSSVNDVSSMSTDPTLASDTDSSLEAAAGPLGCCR
T3 sequence (P53779 whole entry): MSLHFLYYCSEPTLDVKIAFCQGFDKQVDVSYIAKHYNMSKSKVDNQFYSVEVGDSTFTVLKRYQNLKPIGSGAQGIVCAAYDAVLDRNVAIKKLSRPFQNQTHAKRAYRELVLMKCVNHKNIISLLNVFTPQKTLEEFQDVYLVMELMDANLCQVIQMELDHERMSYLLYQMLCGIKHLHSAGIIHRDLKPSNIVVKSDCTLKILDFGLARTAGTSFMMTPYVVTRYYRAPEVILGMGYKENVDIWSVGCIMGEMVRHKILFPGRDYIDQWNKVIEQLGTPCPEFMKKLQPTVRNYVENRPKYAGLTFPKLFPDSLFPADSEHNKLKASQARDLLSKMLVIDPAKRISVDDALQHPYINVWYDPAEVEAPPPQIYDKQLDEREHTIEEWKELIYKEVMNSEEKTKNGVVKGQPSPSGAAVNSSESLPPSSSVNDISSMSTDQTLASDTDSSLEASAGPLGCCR
T7 sequence (P49760 whole entry): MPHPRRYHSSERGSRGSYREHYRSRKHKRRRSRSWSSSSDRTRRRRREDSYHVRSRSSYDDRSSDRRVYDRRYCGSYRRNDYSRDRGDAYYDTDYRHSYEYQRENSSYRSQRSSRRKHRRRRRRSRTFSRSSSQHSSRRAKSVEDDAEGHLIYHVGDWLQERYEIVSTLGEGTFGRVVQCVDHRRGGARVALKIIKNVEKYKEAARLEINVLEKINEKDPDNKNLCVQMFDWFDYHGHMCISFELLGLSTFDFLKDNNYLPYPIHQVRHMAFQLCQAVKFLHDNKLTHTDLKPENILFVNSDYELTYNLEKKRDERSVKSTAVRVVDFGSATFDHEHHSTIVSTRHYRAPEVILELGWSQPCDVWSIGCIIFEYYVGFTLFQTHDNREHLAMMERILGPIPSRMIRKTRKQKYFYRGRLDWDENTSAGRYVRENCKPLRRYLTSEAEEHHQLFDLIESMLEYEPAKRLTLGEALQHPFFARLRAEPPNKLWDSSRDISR
T4 sequence (Q16539 whole entry): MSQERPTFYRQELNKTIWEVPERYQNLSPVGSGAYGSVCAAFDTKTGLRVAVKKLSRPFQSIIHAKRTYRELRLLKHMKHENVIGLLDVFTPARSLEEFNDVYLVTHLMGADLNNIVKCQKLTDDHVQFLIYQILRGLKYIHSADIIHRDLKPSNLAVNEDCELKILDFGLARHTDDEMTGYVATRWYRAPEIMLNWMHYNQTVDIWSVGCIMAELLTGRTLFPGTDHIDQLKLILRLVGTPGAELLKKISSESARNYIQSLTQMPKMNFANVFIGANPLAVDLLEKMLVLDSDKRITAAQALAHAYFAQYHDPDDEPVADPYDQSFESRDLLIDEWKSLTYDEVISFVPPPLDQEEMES
T5 sequence (P49759 whole entry): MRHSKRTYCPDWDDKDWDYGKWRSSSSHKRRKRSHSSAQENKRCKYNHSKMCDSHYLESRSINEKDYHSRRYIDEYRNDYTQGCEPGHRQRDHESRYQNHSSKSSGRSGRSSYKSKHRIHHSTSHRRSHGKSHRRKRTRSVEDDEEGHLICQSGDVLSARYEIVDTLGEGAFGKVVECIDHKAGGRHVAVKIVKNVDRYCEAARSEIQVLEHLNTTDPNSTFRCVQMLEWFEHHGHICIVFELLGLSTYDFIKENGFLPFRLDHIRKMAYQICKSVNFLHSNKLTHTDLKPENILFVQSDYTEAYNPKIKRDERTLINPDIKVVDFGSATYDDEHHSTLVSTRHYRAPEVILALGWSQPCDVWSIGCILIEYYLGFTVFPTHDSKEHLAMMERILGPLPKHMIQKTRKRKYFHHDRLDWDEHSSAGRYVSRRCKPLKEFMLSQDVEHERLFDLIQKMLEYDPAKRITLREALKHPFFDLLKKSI

| SMILES | remaining activity at 0.1 µM [1] [%] | remaining activity at 0.1 µM [2] [%] | remaining activity at 0.1 µM [3] [%] | remaining activity at 0.1 µM [4] [%] | remaining activity at 0.1 µM [5] [%] | remaining activity at 0.1 µM [6] [%] | remaining activity at 0.1 µM [7] [%] | remaining activity at 0.1 µM [8] [%] |
| --- | --- | --- | --- | --- | --- | --- | --- | --- |
| CN1CCN(Cc2ccc(-c3cnc4[nH]cc(-c5ccc6[nH]ccc6c5)c4c3)cc2)CC1 [Compound 1, 3-(1H-Indol-5-yl)-5-(4-((4-methylpiperazin-1-yl)methyl)phenyl)-1H-pyrrolo[2,3-b]pyridine, reference compound] | 16.1 | 108 | 122 | 108 | 33 | 75.3 | 22.8 | 27.5 |
| CN1CCN(Cc2ccc(-c3cnc4[nH]cc(-c5ccccc5Cl)c4c3)cc2)CC1 [Compound 7as, 3-(2-Chlorophenyl)-5-(4-((4-methylpiperazin-1-yl)methyl)phenyl)-1H-pyrrolo[2,3-b]pyridine] | 18.8 | 97.5 | 111 | 113 | 44.6 | 74.6 | 22.5 | 8.85 |
| CN1CCN(Cc2ccc(-c3cnc4[nH]cc(-c5cnn(Cc6ccccc6)c5)c4c3)cc2)CC1 [Compound 7ah, 3-(1-Benzyl-1H-pyrazol-4-yl)-5-(4-((4-methylpiperazin-1-yl)methyl)phenyl)-1H-pyrrolo[2,3-b]pyridine] | 7.09 | 104 | 81.8 | 109 | 3.41 | 18.6 | 4.24 | 10.1 |
| CN1CCN(Cc2ccc(-c3cnc4[nH]cc(-c5ccncc5)c4c3)cc2)CC1 [Compound 7n, 5-(4-((4-Methylpiperazin-1-yl)methyl)phenyl)-3-(pyridin-4-yl)-1H-pyrrolo[2,3-b]pyridine] | 42.3 | 107 | 115 | 101 | 34.9 | 85.5 | 23.6 | 59.6 |
| COc1ccccc1-c1c[nH]c2ncc(-c3ccc(CN4CCN(C)CC4)cc3)cc12 [Compound 7at, 3-(2-Methoxyphenyl)-5-(4-((4-methylpiperazin-1-yl)methyl)phenyl)-1H-pyrrolo[2,3-b]pyridine] | 50.2 | 101 | 104 | 96.2 | 78.4 | 102 | 90.9 | 12.3 |
| CN1CCN(Cc2ccc(-c3cnc4[nH]cc(-c5cccc(Cl)c5)c4c3)cc2)CC1 [Compound 7ad, 3-(3-Chlorophenyl)-5-(4-((4-methylpiperazin-1-yl)methyl)phenyl)-1H-pyrrolo[2,3-b]pyridine] | 17.5 | 102 | 106 | 105 | 81.2 | 88.7 | 79.8 | 8.09 |
| CN1CCN(Cc2ccc(-c3cnc4[nH]cc(-c5ccoc5)c4c3)cc2)CC1 [Compound 7w, 3-(Furan-3-yl)-5-(4-((4-methylpiperazin-1-yl)methyl)phenyl)-1H-pyrrolo[2,3-b]pyridine] | 32.8 | 102 | 113 | 110 | 81.9 | 76.8 | 59.2 | 33.6 |
| CN1CCN(Cc2ccc(-c3cnc4[nH]cc(-c5ccc6c(c5)OCCO6)c4c3)cc2)CC1 [Compound 7d, 3-(2,3-Dihydrobenzo[b][1,4]dioxin-6-yl)-5-(4-((4-methylpiperazin-1-yl)methyl)phenyl)-1H-pyrrolo[2,3-b]pyridine] | 6.42 | 107 | 120 | 102 | 1.66 | 52.2 | 2.71 | 13.1 |
| Cc1nn(C)c(C)c1-c1c[nH]c2ncc(-c3ccc(CN4CCN(C)CC4)cc3)cc12 [Compound 7ai, 5-(4-((4-Methylpiperazin-1-yl)methyl)phenyl)-3-(1,3,5-trimethyl-1H-pyrazol-4-yl)-1H-pyrrolo[2,3-b]pyridine] | 19.2 | 102 | 107 | 98.2 | 66.4 | 77.7 | 52.5 | 53.8 |
